Results taken from US20250312352A1, “GLP-1R MODULATING COMPOUNDS” (Gilead Sciences, Inc., priority 2021, published 2025).

The molecules below were run against T1, GLP-1R (Homo sapiens, UniProt P43220) (assay: GLP-1R activation cAMP assay (Assay 1 or Assay 2)). Settings: cAMP increase in CHO cells stably expressing GLP-1R; compounds run on one of the two cAMP assays.
T1 construct: host or cells: CHO cells
T1 sequence (P43220 24-463): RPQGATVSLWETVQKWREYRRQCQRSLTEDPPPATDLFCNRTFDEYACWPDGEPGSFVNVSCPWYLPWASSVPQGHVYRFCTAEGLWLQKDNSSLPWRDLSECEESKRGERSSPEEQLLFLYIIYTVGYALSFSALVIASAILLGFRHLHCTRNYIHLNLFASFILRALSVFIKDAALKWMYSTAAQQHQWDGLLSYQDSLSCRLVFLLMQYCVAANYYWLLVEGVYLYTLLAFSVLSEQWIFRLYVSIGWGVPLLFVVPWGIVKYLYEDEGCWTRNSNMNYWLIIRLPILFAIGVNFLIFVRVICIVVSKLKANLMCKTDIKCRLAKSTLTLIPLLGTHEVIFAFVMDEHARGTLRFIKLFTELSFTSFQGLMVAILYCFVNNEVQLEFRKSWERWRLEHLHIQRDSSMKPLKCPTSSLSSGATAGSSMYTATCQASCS
Assay type: cell-based
Procedure, shortened: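 EC50 values come from a sigmoidal fit of HTRF-detected cAMP rise versus log agonist concentration. GLP-1R-expressing CHO cells, equilibrated 1 h at 37 °C in HBSS with HEPES and BSA, received a 10-point compound dose series for 30 min before detection.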
`O=C(O)c1ccc2nc(Cc3cc(F)c(-c4cccc(OCc5ccc(-c6cnn(C7COC7)c6)cc5F)n4)cc3F)n(C[C@@H]3CCO3)c2c1` [Example 164, (S)-2-(2,5-difluoro-4-(6-((2-fluoro-4-(1-(oxetan-3-yl)-1H-pyrazol-4-yl)benzyl)oxy)pyridin-2-yl)benzyl)-1-(oxetan-2-ylmethyl)-1H-benzo[d]imidazole-6-carboxylic acid] showed an EC50 of 0.1 nM. Molecule `NC(=O)c1ncc(COc2cccc(-c3cc(F)c(Cc4nc5ccc(C(=O)O)cc5n4C[C@@H]4CCO4)cc3F)n2)s1` [Example 165, (S)-2-(4-(6-((2-carbamoylthiazol-5-yl)methoxy)pyridin-2-yl)-2,5-difluorobenzyl)-1-(oxetan-2-ylmethyl)-1H-benzo[d]imidazole-6-carboxylic acid] has an EC50 of 2 nM. `N#Cc1ncc(COc2cccc(-c3cc(F)c(Cc4nc5ccc(C(=O)O)cc5n4C[C@@H]4CCO4)cc3F)n2)s1` [Example 166, (S)-2-(4-(6-((2-cyanothiazol-5-yl)methoxy)pyridin-2-yl)-2,5-difluorobenzyl)-1-(oxetan-2-ylmethyl)-1H-benzo[d]imidazole-6-carboxylic acid] was tested, and the EC50 was 0.62 nM. With `O=C(O)c1ccc2nc(Cc3cc(F)c(-c4cccc(OCc5cncs5)n4)cc3F)n(C[C@@H]3CCO3)c2c1` [Example 167, (S)-2-(2,5-difluoro-4-(6-(thiazol-5-ylmethoxy)pyridin-2-yl)benzyl)-1-(oxetan-2-ylmethyl)-1H-benzo[d]imidazole-6-carboxylic acid] the EC50 was 0.87 nM. Molecule `N#Cc1ncc(COc2cccc(-c3cc(F)c(Cc4nc5ccc(C(=O)O)cc5n4C[C@@H]4CCO4)cc3F)n2)o1` [Example 168, (S)-2-(4-(6-((2-cyanooxazol-5-yl)methoxy)pyridin-2-yl)-2,5-difluorobenzyl)-1-(oxetan-2-ylmethyl)-1H-benzo[d]imidazole-6-carboxylic acid] has an EC50 of 21.3 nM. Work on `O=C(O)c1ccc2nc(Cc3cc(F)c(-c4cccc(OCc5cnco5)n4)cc3F)n(C[C@@H]3CCO3)c2c1` [Example 169, (S)-2-(2,5-difluoro-4-(6-(oxazol-5-ylmethoxy)pyridin-2-yl)benzyl)-1-(oxetan-2-ylmethyl)-1H-benzo[d]imidazole-6-carboxylic acid] yielded an EC50 of 11.8 nM. `N#Cc1nc(COc2cccc(-c3cc(F)c(Cc4nc5ccc(C(=O)O)cc5n4C[C@@H]4CCO4)cc3F)n2)cs1` [Example 170, (S)-2-(4-(6-((2-cyanothiazol-4-yl)methoxy)pyridin-2-yl)-2,5-difluorobenzyl)-1-(oxetan-2-ylmethyl)-1H-benzo[d]imidazole-6-carboxylic acid] was tested, and the EC50 was 8.29 nM. For `NC(=O)c1ccc(COc2cccc(-c3cc(F)c(Cc4nc5ccc(C(=O)O)cc5n4C[C@@H]4CCO4)cc3F)n2)o1` [Example 171, (S)-2-(4-(6-((5-carbamoylfuran-2-yl)methoxy)pyridin-2-yl)-2,5-difluorobenzyl)-1-(oxetan-2-ylmethyl)-1H-benzo[d]imidazole-6-carboxylic acid], the EC50 was 2.94 nM. Molecule `NC(=O)c1cc(F)c(COc2cccc(-c3cc(F)c(Cc4nc5ccc(C(=O)O)cc5n4C[C@@H]4CCO4)cc3F)n2)cc1F` [Example 172, (S)-2-(4-(6-((4-carbamoyl-2,5-difluorobenzyl)oxy)pyridin-2-yl)-2,5-difluorobenzyl)-1-(oxetan-2-ylmethyl)-1H-benzo[d]imidazole-6-carboxylic acid] has an EC50 of 2.57 nM. `NC(=O)c1ccc(COc2cccc(-c3ccc(Cc4nc5ccc(C(=O)O)cc5n4C[C@@H]4CCO4)cc3F)n2)cn1` [Example 173, (S)-2-(4-(6-((6-carbamoylpyridin-3-yl)methoxy)pyridin-2-yl)-3-fluorobenzyl)-1-(oxetan-2-ylmethyl)-1H-benzo[d]imidazole-6-carboxylic acid] showed an EC50 of 23.2 nM. Molecule `COCCn1c(Cc2cc(F)c(-c3cccc(OCc4ccc(C(N)=O)nc4)n3)cc2F)nc2ccc(C(=O)O)cc21` [Example 174, 2-(4-(6-((6-carbamoylpyridin-3-yl)methoxy)pyridin-2-yl)-2,5-difluorobenzyl)-1-(2-methoxyethyl)-1H-benzo[d]imidazole-6-carboxylic acid] has an EC50 of 40.6 nM. `N#CCNC(=O)c1ccc(COc2cccc(-c3cc(F)c(Cc4nc5ccc(C(=O)O)cc5n4C[C@@H]4CCO4)cc3F)n2)cn1` [Example 175, (S)-2-(4-(6-((6-((cyanomethyl)carbamoyl)pyridin-3-yl)methoxy)pyridin-2-yl)-2,5-difluorobenzyl)-1-(oxetan-2-ylmethyl)-1H-benzo[d]imidazole-6-carboxylic acid] gave an EC50 of 0.11 nM. Work on `NC(=O)CNC(=O)c1ccc(COc2cccc(-c3cc(F)c(Cc4nc5ccc(C(=O)O)cc5n4C[C@@H]4CCO4)cc3F)n2)cn1` [Example 176, (S)-2-(4-(6-((6-((2-amino-2-oxoethyl)carbamoyl)pyridin-3-yl)methoxy)pyridin-2-yl)-2,5-difluorobenzyl)-1-(oxetan-2-ylmethyl)-1H-benzo[d]imidazole-6-carboxylic acid] yielded an EC50 of 2.19 nM. `Cn1cnc(COc2cccc(-c3cc(F)c(Cc4nc5ccc(C(=O)O)cc5n4C[C@@H]4CCO4)cc3F)n2)c1` [Example 177, (S)-2-(2,5-difluoro-4-(6-((1-methyl-1H-imidazol-4-yl)methoxy)pyridin-2-yl)benzyl)-1-(oxetan-2-ylmethyl)-1H-benzo[d]imidazole-6-carboxylic acid] showed an EC50 of 34.6 nM. `Cn1cncc1COc1cccc(-c2cc(F)c(Cc3nc4ccc(C(=O)O)cc4n3C[C@@H]3CCO3)cc2F)n1` [Example 178, (S)-2-(2,5-difluoro-4-(6-((1-methyl-1H-imidazol-5-yl)methoxy)pyridin-2-yl)benzyl)-1-(oxetan-2-ylmethyl)-1H-benzo[d]imidazole-6-carboxylic acid] gave an EC50 of 23.6 nM. Work on `Cc1ncc(COc2cccc(-c3cc(F)c(Cc4nc5ccc(C(=O)O)cc5n4C[C@@H]4CCO4)cc3F)n2)n1C` [Example 179, (S)-2-(4-(6-((1,2-dimethyl-1H-imidazol-5-yl)methoxy)pyridin-2-yl)-2,5-difluorobenzyl)-1-(oxetan-2-ylmethyl)-1H-benzo[d]imidazole-6-carboxylic acid] yielded an EC50 of 4.59 nM. Molecule `Cc1nc(COc2cccc(-c3cc(F)c(Cc4nc5ccc(C(=O)O)cc5n4C[C@@H]4CCO4)cc3F)n2)cn1C(F)F` [Example 180, (S)-2-(4-(6-((1-(difluoromethyl)-2-methyl-1H-imidazol-4-yl)methoxy)pyridin-2-yl)-2,5-difluorobenzyl)-1-(oxetan-2-ylmethyl)-1H-benzo[d]imidazole-6-carboxylic acid] has an EC50 of 28 nM. Molecule `O=C(O)c1ccc2nc(Cc3cc(F)c(-c4cccc(OCc5cc[nH]n5)n4)cc3F)n(C[C@@H]3CCO3)c2c1` [Example 181, (S)-2-(4-(6-((1H-pyrazol-3-yl)methoxy)pyridin-2-yl)-2,5-difluorobenzyl)-1-(oxetan-2-ylmethyl)-1H-benzo[d]imidazole-6-carboxylic acid] has an EC50 of 5.99 nM. Molecule `CC1(C)COC[C@@H]1n1c(Cc2cc(F)c(-c3cccc(OCc4ncc(C#N)s4)n3)cc2F)nc2ccc(C(=O)O)cc21` [Example 182, (R)-2-(4-(6-((5-cyanothiazol-2-yl)methoxy)pyridin-2-yl)-2,5-difluorobenzyl)-1-(4,4-dimethyltetrahydrofuran-3-yl)-1H-benzo[d]imidazole-6-carboxylic acid] has an EC50 of 0.19 nM.
